Reference: the supplement of paper PMC4862054
“And” between values parts separate entries of the source, which are not always exact repeats. Equal entries are not always repeated.

Columns and labels:
Conditions in all cases: incubation time: 72 h
CAL-51 = experiment: normalised viability (% of control), CellTiter-Blue; higher = more viable cells (about 100 = DMSO control)
Method: (§1)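 DSRT, CellTiter-Blue viability, 72 h incubation. Signal is normalised to DMSO and benzethonium chloride controls. Value is the normalised response at dose 9.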

CAL-85-1 [1] = experiment: as above
Method: as §1

DU-4475 = experiment: as above
Method: as §1

CAL-148 = experiment: as above
Method: as §1

MDA-MB-453 [2] = experiment: as above
Method: as §1

HDQ-P1 = experiment: as above
Method: as §1

HCC1937 = experiment: normalised response (% of control), CellTiter-Glo; higher = more viable cells (100 = DMSO, 0 = benzethonium chloride kill control)
In short: (§2)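 Breast cancer cell lines (20 µl suspension) were seeded into 384-well plates holding compound at 5 concentrations in 10-fold steps over a compound-specific 10,000-fold range, then incubated 72 h. CellTox Green fluorescence (485/520 nm) was read first, then CellTiter-Glo luminescence after 10 min at room temperature. Each plate was normalised to 0.1 % DMSO (100) and a positive kill control (0). Each value is the normalised signal at a single concentration of the series.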

HCC1143 = experiment: as above
In short: as §2

CAL-85-1 [3] = experiment: as above
In short: as §2

MDA-MB-453 [4] = experiment: as above
In short: as §2

NC(=O)c1ccc(I)c([N+](=O)[O-])c1 [Iniparib] (10000 nM)
normalised viability (CAL-51): 91.6% | normalised viability (CAL-85-1 [1]): 98% | normalised viability (DU-4475): 94% | normalised viability (CAL-148): 108% | normalised viability (MDA-MB-453 [2]): 84.8% | normalised viability (HDQ-P1): 106%

O=C(Nc1ccncc1)C(=O)c1cn(Cc2ccc(Cl)cc2)c2ccccc12 [Indibulin] (1000 nM)
normalised response (HCC1937): 73.9% | normalised response (HCC1143): 67.2% | normalised response (CAL-85-1 [3]): 38.3% | normalised response (MDA-MB-453 [4]): 67.8%

CCc1c2c(nc3ccc(OC(=O)N4CCC(N5CCCCC5)CC4)cc13)-c1cc3c(c(=O)n1C2)COC(=O)[C@]3(O)CC [Irinotecan] (1000 nM)
normalised response (HCC1937): 91.8% | normalised response (HCC1143): 88.1% | normalised response (CAL-85-1 [3]): 104% | normalised response (MDA-MB-453 [4]): 152%

c1ccc2c(CCNc3ccc(Nc4ccncc4)cc3)c[nH]c2c1 [Serdemetan] (10000 nM)
normalised viability (CAL-51): 57% | normalised viability (CAL-85-1 [1]): 55.1% | normalised viability (DU-4475): -0.82% | normalised viability (CAL-148): 55.8% | normalised viability (MDA-MB-453 [2]): 39.4% | normalised viability (HDQ-P1): 56.6%

Oc1ccc2c(c1)CC[C@H](c1ccccc1)[C@@H]2c1ccc(OCCN2CCCC2)cc1 [Lasofoxifene] (100 nM)
normalised response (HCC1937): 96% | normalised response (HCC1143): 106% | normalised response (CAL-85-1 [3]): 97.6% | normalised response (MDA-MB-453 [4]): 104%

CC(C)C[C@@H](C(=O)N[C@H](C(=O)OC1CCCC1)c1ccccc1)[C@H](O)C(=O)NO [Tosedostat] (1000 nM)
normalised response (HCC1937): 67.4% | normalised response (HCC1143): 69% | normalised response (CAL-85-1 [3]): 48.2% | normalised response (MDA-MB-453 [4]): 48.7%

CNC(=O)c1cc(Oc2ccc(NC(=O)Nc3ccc(Cl)c(C(F)(F)F)c3)c(F)c2)ccn1 [Regorafenib] (10000 nM)
normalised viability (CAL-51): 48.2% | normalised viability (CAL-85-1 [1]): 76.7% | normalised viability (DU-4475): 39.3% | normalised viability (CAL-148): 81.7% | normalised viability (MDA-MB-453 [2]): 22% | normalised viability (HDQ-P1): 92.9%

C=C1C[C@@H]2[C@H](CC[C@]3(C)C(=O)CC[C@@H]23)[C@@]2(C)C=CC(=O)C=C12 [Exemestane] (10000 nM)
normalised viability (CAL-51): 105% | normalised viability (CAL-85-1 [1]): 99.1% | normalised viability (DU-4475): 88.9% | normalised viability (CAL-148): 104% | normalised viability (MDA-MB-453 [2]): 81% | normalised viability (HDQ-P1): 103%

COCC[n+]1c2c(n(Cc3cnccn3)c1C)C(=O)c1ccccc1C2=O [YM155] (10000 nM)
normalised viability (CAL-51): 1.83% | normalised viability (CAL-85-1 [1]): 2.71% | normalised viability (DU-4475): 0.83% | normalised viability (CAL-148): 2.13% | normalised viability (MDA-MB-453 [2]): 2% | normalised viability (HDQ-P1): 0.66%

O=C(Nc1ccncc1)C(=O)c1cn(Cc2ccc(Cl)cc2)c2ccccc12 [Indibulin] (10000 nM)
normalised viability (CAL-51): 24.4% | normalised viability (CAL-85-1 [1]): 38.9% | normalised viability (DU-4475): 21.4% | normalised viability (CAL-148): 43.7% | normalised viability (MDA-MB-453 [2]): 36% | normalised viability (HDQ-P1): 55.2%

O=C(Nc1cccnc1)N1CCC(Cc2cccc(Oc3ccc(C(F)(F)F)cn3)c2)CC1 [PF-3845] (10000 nM)
normalised viability (CAL-51): 65.5% | normalised viability (CAL-85-1 [1]): 93.4% | normalised viability (DU-4475): 108% | normalised viability (CAL-148): 98.2% | normalised viability (MDA-MB-453 [2]): 38.4% | normalised viability (HDQ-P1): 128%

N#Cc1ccc(COC[C@H]2O[C@@H](n3c(NCc4ccc(Cl)c(Cl)c4)nc4c(N)ncnc43)[C@H](O)[C@@H]2O)cc1 (1000 nM)
normalised response (HCC1937): 86.9% | normalised response (HCC1143): 97.2% | normalised response (CAL-85-1 [3]): 107% | normalised response (MDA-MB-453 [4]): 98.4%

CNC(=O)c1cc(Oc2ccc(NC(=O)Nc3ccc(Cl)c(C(F)(F)F)c3)c(F)c2)ccn1 [Regorafenib] (1000 nM)
normalised response (HCC1937): 103% | normalised response (HCC1143): 93.5% | normalised response (CAL-85-1 [3]): 109% | normalised response (MDA-MB-453 [4]): 97.2%

CN(C)c1nc(N(C)C)nc(N(C)C)n1 [Altretamine] (10000 nM)
normalised viability (CAL-51): 72.6% | normalised viability (CAL-85-1 [1]): 46.5% | normalised viability (DU-4475): 94.7% | normalised viability (CAL-148): 63.4% | normalised viability (MDA-MB-453 [2]): 18.7% | normalised viability (HDQ-P1): 111%

COc1cc2ncnc(Nc3ccc(F)c(Cl)c3)c2cc1OCCCN1CCOCC1 [Gefitinib] (1000 nM)
normalised response (HCC1937): 87.9% | normalised response (HCC1143): 96.2% | normalised response (CAL-85-1 [3]): 58.4% | normalised response (MDA-MB-453 [4]): 95.2%

O=C(/C=C/c1cccc(S(=O)(=O)Nc2ccccc2)c1)NO [Belinostat] (1000 nM)
normalised response (HCC1937): 69.9% | normalised response (HCC1143): 47.3% | normalised response (CAL-85-1 [3]): 44.5% | normalised response (MDA-MB-453 [4]): 14.4%

C=C1C[C@@H]2[C@H](CC[C@]3(C)C(=O)CC[C@@H]23)[C@@]2(C)C=CC(=O)C=C12 [Exemestane] (1000 nM)
normalised response (HCC1937): 103% | normalised response (HCC1143): 107% | normalised response (CAL-85-1 [3]): 98.3% | normalised response (MDA-MB-453 [4]): 105%

CCc1c2c(nc3ccc(OC(=O)N4CCC(N5CCCCC5)CC4)cc13)-c1cc3c(c(=O)n1C2)COC(=O)[C@]3(O)CC [Irinotecan] (10000 nM)
normalised viability (CAL-51): 8.48% and 31.6% | normalised viability (DU-4475): 4.69% and 18.8% | normalised viability (HDQ-P1): 64% and 80%

Oc1ccc2c(c1)CC[C@H](c1ccccc1)[C@@H]2c1ccc(OCCN2CCCC2)cc1 [Lasofoxifene] (1000 nM)
normalised viability (CAL-51): 90% | normalised viability (CAL-85-1 [1]): 81.8% | normalised viability (DU-4475): 97.8% | normalised viability (CAL-148): 107% | normalised viability (MDA-MB-453 [2]): 107% | normalised viability (HDQ-P1): 125%

COc1cc2ncnc(Nc3ccc(F)c(Cl)c3)c2cc1OCCCN1CCOCC1 [Gefitinib] (10000 nM)
normalised viability (CAL-51): 82.1% and 81.6% | normalised viability (CAL-85-1 [1]): 45% and 40.7% | normalised viability (DU-4475): 102% and 105% | normalised viability (CAL-148): 69.2% and 65% | normalised viability (MDA-MB-453 [2]): 29.8% and 23% | normalised viability (HDQ-P1): 59.6% and 51.1%

COCC1(CO)C(=O)C2CCN1CC2 (stereo not given) [Prima-1 Met] (10000 nM)
normalised viability (CAL-51): 99.7% | normalised viability (CAL-85-1 [1]): 98.3% | normalised viability (DU-4475): 125% | normalised viability (CAL-148): 80.7% | normalised viability (MDA-MB-453 [2]): 89.4% | normalised viability (HDQ-P1): 103%
